Results as given in ChEMBL document CHEMBL1201862, “PubChem BioAssay data set” (2004).
Active and inactive are the calls of the source.

Assays:
[1] = target: Alkaline phosphatase, placental type (Homo sapiens, UniProt P05187); experiment: PLAP enzyme inhibitors, confirmation, biochemical, luminescence (AID 1512); type: functional
SUMO-activating enzyme = SUMO-activating enzyme (Homo sapiens, UniProt Q9UBT2); experiment: SUMOylation inhibitor hit validation, confirmation, SUMOylation inhibitor project, biochemical, AlphaScreen (AID 2018); type: functional
[2] = THP-1 cell cytotoxicity, dose response, cytotoxicity control for Vif-APOBEC3G degradation inhibitor project, THP-1 cells (AID 1117359); type: functional; settings: Human immunodeficiency virus 1, THP-1
[3] = Luminescence Cell-Based Dose Confirmation HTS to Identify Activators of 5'UTR Stem-Loop Driven Alpha-Synuclein mRNA Translation in H4 Neuroglioblastoma Cells. [Related pubchem assays: 1829 (Project Summary), 1814 (Primary HTS)]; type: functional
[4] = Luminescence Cell-Based Dose Response HTS to Identify Activators of Luciferase Translation or Activity in H4 […] Cells. [Related pubchem assays: 1829 (Project Summary), 1814 (Primary HTS)]; type: functional
H4 = experiment: Luminescence Cell-Based Dose Response HTS to Identify Activators of 5'UTR Stem-Loop Driven Prion Protein mRNA Translation in H4 Neuroglioblastoma Cells. [Related pubchem assays: 1829 (Project Summary), 1814 (Primary HTS)]; type: functional; settings: Homo sapiens
[5] = target: T1, Voltage-gated N-type calcium channel alpha-1B subunit/Amyloid beta A4 precursor protein-binding family A member 1 (Homo sapiens, UniProt Q00975+Q02410); type: protein assay
T1 sequence (Q00975 whole entry): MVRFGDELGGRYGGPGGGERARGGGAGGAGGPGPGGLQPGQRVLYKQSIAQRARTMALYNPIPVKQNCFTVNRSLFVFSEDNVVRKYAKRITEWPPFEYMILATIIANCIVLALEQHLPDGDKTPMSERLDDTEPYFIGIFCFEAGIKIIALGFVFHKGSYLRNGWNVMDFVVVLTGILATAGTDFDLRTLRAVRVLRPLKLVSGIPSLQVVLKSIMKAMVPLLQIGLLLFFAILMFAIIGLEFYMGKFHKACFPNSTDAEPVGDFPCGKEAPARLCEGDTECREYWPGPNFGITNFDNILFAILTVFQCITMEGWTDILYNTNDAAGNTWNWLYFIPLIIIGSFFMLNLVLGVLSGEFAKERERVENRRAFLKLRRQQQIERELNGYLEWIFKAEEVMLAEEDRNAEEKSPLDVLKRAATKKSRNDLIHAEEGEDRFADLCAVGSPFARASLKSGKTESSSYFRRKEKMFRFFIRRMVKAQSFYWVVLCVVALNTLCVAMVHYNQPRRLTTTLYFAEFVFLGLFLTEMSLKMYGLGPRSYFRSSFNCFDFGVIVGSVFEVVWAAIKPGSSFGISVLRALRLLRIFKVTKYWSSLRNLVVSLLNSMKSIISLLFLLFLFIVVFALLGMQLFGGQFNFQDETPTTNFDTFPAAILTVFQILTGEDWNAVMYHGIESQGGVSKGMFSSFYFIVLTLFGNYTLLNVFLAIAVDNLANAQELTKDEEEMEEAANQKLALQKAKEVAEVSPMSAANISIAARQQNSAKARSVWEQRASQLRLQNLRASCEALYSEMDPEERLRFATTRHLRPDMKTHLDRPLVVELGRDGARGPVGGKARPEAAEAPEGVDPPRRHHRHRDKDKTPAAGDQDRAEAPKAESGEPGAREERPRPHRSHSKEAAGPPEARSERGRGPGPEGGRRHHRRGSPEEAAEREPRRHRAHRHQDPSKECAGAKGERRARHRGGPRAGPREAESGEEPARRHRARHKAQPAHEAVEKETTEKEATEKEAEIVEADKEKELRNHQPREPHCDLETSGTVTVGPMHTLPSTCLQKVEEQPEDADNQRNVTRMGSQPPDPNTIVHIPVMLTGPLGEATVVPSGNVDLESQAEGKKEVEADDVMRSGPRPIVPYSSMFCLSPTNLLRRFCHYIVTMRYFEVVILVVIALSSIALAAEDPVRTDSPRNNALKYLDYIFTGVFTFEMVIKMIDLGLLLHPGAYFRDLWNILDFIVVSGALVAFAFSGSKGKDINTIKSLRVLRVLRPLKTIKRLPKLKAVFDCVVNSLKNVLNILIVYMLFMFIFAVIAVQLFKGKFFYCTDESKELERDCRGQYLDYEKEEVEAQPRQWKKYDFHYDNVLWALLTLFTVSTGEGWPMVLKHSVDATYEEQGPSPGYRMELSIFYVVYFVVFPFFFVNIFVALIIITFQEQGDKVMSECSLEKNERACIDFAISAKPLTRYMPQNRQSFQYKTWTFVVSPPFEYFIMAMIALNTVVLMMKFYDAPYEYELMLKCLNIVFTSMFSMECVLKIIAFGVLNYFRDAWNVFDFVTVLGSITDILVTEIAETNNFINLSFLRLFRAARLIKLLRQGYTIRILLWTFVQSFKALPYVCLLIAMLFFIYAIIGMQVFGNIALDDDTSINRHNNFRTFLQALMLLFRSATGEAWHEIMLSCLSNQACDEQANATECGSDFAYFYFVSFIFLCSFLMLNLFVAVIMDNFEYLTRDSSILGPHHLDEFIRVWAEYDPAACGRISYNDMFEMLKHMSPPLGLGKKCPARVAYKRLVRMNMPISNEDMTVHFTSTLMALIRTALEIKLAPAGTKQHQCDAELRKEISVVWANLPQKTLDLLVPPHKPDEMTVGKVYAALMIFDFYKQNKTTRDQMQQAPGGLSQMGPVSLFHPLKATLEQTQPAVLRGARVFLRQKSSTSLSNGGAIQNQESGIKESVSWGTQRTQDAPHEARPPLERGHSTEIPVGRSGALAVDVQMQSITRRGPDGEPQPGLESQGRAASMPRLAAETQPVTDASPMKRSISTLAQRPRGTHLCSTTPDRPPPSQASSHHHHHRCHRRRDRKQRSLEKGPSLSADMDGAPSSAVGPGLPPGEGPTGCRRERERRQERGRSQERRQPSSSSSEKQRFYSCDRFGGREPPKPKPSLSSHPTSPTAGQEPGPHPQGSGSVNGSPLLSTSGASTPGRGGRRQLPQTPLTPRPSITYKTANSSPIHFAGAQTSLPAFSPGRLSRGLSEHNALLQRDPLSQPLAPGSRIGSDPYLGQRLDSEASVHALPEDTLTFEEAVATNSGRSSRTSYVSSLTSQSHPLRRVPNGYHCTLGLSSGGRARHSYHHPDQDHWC
T1 sequence (Q02410 whole entry): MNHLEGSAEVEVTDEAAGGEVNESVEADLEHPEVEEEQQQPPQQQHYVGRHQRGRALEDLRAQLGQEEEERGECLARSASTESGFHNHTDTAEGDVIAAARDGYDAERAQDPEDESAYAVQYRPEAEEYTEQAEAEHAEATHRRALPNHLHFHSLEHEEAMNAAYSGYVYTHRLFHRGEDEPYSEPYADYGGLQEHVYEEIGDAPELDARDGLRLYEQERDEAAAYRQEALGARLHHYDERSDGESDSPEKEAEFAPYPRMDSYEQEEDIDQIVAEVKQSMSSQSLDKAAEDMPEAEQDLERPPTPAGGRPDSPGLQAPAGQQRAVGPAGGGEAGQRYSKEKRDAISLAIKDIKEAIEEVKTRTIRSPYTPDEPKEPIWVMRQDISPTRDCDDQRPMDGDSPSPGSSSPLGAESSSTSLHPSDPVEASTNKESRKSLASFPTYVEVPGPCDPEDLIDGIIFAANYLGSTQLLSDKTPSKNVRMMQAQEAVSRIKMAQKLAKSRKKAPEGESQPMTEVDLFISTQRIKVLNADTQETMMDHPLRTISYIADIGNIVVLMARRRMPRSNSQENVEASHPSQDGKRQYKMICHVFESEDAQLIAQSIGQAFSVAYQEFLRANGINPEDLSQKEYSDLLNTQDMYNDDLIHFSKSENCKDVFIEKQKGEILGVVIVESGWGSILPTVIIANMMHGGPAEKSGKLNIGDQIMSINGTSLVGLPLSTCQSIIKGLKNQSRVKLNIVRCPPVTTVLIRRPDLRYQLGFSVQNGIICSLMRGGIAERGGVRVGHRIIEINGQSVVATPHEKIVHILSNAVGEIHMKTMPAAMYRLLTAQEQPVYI

[6] = target: T1, Voltage-gated N-type calcium channel alpha-1B subunit/Amyloid beta A4 precursor protein-binding family A member 1; type: protein assay; remark: listed apart in the source
[7] = target: T2, Tyrosine-protein phosphatase non-receptor type 7 (Homo sapiens, UniProt P35236); experiment: HePTP (PTPN7) phosphatase inhibitor potency, SAR follow-up, biochemical, set 2 (AID 449736); type: functional
T2 sequence (P35236 whole entry): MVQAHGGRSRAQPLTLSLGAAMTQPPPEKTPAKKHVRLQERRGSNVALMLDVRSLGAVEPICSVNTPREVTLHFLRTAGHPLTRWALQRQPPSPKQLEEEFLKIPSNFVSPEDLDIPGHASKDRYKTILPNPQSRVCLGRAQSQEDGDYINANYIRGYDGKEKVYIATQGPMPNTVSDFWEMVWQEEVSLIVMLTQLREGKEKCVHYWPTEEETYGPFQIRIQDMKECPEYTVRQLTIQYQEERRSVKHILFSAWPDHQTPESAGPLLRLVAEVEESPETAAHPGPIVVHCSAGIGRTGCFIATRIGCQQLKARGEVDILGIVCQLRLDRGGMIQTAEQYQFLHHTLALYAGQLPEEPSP

[8] = target: T3, Corticotropin-releasing factor receptor 2/Corticotropin-releasing factor-binding protein (Homo sapiens, UniProt P24387+Q13324); experiment: Dose Response confirmation of uHTS hits for small molecule antagonists of the CRF-binding protein and CRF-R2 receptor complex.; type: functional; settings: read-out: IC50_Mean
T3 sequence (Q13324 whole entry): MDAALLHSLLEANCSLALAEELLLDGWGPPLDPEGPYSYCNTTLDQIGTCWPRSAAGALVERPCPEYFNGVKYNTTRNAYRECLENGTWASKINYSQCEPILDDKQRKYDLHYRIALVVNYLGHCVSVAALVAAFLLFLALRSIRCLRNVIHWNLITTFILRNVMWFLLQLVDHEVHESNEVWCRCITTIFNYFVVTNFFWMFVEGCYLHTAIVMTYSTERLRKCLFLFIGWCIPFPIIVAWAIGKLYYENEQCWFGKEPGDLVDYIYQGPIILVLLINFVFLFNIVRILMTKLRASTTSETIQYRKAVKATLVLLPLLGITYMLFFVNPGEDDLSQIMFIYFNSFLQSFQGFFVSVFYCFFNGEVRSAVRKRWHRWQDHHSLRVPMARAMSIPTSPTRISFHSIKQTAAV
T3 sequence (P24387 whole entry): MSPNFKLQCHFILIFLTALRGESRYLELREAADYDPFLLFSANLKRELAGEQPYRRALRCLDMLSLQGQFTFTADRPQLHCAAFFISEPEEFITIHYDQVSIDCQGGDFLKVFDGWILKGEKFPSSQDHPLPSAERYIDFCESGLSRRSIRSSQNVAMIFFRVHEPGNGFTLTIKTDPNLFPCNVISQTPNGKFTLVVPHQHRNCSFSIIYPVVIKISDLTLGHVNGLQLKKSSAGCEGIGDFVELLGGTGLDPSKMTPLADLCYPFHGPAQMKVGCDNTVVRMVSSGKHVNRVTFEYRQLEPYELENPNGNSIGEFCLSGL

[9] = target: T3, Corticotropin-releasing factor receptor 2/Corticotropin-releasing factor-binding protein; experiment: activators of CRF receptor 2 with binding protein – uHTS hits, confirmation (AID 602473); type: functional; settings: read-out: EC50_Mean
[10] = target: T4, Calpain-2 catalytic subunit (Sus scrofa, UniProt P43367); experiment: pig calpain II inhibitor potency, dose response, biochemical, fluorogenic peptide substrate (AID 1420); type: functional
T4 sequence (P43367 whole entry): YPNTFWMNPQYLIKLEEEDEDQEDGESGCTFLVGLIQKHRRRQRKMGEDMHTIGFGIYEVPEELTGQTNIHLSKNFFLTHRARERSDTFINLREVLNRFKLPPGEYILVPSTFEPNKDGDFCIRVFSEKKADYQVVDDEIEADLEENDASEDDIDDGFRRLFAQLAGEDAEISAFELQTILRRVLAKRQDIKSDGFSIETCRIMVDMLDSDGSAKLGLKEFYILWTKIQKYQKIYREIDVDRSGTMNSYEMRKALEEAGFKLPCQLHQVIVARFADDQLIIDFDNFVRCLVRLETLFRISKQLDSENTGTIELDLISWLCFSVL

[11] = target: Lysine-specific demethylase 4C (Homo sapiens, UniProt Q9H3R0); experiment: GASC-1 (JMJD2C) histone demethylase inhibitors, dose response, biochemical, DELFIA europium, cherry-picked samples (AID 488835); type: functional
Sequence of Lysine-specific demethylase 4C (Q9H3R0 whole entry, the tested form may be a part): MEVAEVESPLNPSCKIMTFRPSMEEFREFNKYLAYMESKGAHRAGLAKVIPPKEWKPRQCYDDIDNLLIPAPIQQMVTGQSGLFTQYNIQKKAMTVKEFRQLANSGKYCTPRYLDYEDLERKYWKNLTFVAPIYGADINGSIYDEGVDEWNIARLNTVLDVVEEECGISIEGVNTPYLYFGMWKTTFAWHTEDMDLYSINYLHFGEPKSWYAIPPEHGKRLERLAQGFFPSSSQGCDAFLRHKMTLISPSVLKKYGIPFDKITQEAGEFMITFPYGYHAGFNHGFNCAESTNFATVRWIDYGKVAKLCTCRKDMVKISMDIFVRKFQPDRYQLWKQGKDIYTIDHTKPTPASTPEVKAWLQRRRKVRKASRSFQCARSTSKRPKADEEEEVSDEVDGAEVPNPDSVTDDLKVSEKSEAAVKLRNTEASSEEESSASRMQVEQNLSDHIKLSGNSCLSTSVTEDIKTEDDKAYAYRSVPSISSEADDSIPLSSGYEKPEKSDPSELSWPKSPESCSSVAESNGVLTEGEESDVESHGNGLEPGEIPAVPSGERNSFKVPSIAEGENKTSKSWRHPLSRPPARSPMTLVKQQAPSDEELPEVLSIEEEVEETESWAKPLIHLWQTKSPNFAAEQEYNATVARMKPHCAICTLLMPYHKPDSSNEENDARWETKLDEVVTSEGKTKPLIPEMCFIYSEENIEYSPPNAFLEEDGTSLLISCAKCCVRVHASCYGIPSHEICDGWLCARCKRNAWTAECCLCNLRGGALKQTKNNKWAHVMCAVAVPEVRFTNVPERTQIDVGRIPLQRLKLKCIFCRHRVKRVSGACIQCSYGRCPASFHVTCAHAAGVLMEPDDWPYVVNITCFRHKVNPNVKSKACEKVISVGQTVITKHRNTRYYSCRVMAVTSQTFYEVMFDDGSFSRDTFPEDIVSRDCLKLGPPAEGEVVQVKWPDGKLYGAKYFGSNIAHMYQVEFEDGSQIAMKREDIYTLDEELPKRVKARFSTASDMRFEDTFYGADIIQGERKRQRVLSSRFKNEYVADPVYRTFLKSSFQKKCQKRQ

[12] = target: T5, Hepatocyte nuclear factor 4-alpha (Homo sapiens, UniProt P41235); type: functional, cell-based;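 also: biochemical luminescence-based dose-response counterscreen measuring inhibition of HNF4 dimerization, run alongside a screen for blockers of ABHD5–perilipin-5 interaction; split luciferase complementation of HNF4 fusion proteins in cell lysate measuring dimerization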
T5 sequence (P41235 whole entry): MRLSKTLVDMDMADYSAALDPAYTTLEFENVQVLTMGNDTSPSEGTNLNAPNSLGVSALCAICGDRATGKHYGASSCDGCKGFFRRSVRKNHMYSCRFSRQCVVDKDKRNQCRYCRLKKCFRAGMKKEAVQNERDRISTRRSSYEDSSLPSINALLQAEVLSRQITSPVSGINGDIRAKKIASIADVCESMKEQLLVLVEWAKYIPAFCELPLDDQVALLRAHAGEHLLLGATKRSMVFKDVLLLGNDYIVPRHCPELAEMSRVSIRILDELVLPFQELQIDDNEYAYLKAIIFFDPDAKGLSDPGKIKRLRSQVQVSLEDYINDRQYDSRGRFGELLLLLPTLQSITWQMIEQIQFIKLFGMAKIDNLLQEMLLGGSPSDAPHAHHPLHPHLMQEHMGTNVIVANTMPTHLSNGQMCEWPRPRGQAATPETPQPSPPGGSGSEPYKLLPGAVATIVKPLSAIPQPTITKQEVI

Trypsin = Trypsin (Sus scrofa, UniProt P00761); experiment: porcine trypsin inhibitors, dose response, selectivity assay for Rce1 protease inhibitor project, biochemical, quenched peptide fluorescence, cherry-pick (AID 488789)
CAAX prenyl protease 2 = target: T6, CAAX prenyl protease 2 (Saccharomyces cerevisiae S288c, UniProt Q03530); type: biochemical
T6 sequence (Q03530 whole entry): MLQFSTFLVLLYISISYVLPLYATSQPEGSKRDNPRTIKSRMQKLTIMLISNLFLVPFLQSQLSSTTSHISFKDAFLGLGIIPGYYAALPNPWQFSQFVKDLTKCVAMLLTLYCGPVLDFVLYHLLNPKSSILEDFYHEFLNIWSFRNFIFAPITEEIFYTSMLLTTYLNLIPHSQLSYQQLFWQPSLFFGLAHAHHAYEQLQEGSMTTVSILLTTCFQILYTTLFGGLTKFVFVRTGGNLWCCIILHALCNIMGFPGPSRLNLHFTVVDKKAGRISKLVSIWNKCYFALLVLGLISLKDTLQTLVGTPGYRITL

H9c2 = experiment: cells; type: functional, cell-based; settings: Rattus norvegicus, H9c2, Myocardium;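 also: confirmatory concentration-response retest of ultra-high-throughput screening hits for modulation of myocardial damage; cell death induced by hydrogen peroxide oxidative stress; compound pretreatment for 60 min then peroxide exposure for 2 h; potency is for protecting the cells against peroxide damage rather than for killing them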
[13] = target: T7, Kappa-type opioid receptor (Homo sapiens, UniProt P41145); type: functional
T7 sequence (P41145 whole entry): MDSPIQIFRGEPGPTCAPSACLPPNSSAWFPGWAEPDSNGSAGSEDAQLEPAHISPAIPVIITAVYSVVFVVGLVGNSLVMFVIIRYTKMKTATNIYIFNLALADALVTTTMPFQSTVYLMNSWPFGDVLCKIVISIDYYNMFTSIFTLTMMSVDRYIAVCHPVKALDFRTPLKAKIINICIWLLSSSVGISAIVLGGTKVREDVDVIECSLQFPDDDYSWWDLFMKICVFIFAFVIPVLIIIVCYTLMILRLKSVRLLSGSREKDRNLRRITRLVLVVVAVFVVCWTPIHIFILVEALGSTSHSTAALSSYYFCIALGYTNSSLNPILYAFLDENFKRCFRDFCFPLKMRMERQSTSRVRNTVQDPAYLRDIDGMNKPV

Beta-galactosidase = Beta-galactosidase (Escherichia coli, UniProt Q8VNN2); type: functional
[14] = target: T7, Kappa-type opioid receptor; type: functional; remark: listed apart in the source
Nonstructural protein 1 = Nonstructural protein 1 (Influenza A virus, UniProt Q194T2); type: functional, Influenza A virus (A/California/07/2009(H1N1))
[15] = target: T8, Microphthalmia-associated transcription factor (Homo sapiens, UniProt O75030); experiment: TRPM1 promoter luciferase signal decrease, dose response, MITF inhibitor project, cell-based, SK-MEL-5, cherry-picked, set 3 (AID 493073); type: functional
T8 sequence (O75030 whole entry): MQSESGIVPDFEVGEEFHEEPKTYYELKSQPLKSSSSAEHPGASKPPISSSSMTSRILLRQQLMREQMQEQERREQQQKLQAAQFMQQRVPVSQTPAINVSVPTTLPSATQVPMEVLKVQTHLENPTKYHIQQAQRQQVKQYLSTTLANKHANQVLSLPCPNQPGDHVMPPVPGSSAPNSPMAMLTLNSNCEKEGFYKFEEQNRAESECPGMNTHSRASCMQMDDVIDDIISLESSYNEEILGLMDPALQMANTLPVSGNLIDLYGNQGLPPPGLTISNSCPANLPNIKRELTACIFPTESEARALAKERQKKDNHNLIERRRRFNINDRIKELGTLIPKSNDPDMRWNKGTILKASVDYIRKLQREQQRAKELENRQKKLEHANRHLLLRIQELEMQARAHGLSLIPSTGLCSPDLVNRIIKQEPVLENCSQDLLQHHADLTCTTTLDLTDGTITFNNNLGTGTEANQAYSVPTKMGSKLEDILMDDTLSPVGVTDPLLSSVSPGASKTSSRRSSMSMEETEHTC

[16] = NIH-3T3 fibroblast cytotoxicity, dose response, cytotoxicity control, cell-based, fluorescence, Alamar Blue, secondary assay (AID 2327); type: functional;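 also: NIH-3T3 mouse fibroblasts cultured with fluconazole at 8 µg/mL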
[17] = target: T9, Delta-type opioid receptor (Homo sapiens, UniProt P41143); experiment: HTS Image-Based Screen for Antagonists of the DOR Receptor. [Related pubchem assays (depositor defined):AID1777, AID1785, AID1786, AID2133]; type: functional
T9 sequence (P41143 whole entry): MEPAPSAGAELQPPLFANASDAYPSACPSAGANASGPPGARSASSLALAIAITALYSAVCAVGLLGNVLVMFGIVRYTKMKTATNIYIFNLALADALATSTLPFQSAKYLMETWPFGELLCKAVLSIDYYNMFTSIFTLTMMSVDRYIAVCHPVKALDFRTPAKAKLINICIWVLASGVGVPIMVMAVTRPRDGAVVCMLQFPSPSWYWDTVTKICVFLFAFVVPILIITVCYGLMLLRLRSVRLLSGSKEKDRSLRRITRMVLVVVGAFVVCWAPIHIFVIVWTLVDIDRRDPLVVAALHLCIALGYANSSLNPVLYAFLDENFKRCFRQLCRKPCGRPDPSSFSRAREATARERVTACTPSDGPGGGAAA

Mu-type opioid receptor = Mu-type opioid receptor (Homo sapiens, UniProt P35372); experiment: HTS Image-Based Screen for Agonists of the MOR Receptor. [Related pubchem assays (depositor defined):AID1777, AID1785, AID1786, AID2133]; type: functional;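 also: imaging of beta-arrestin GFP recruitment into spots after receptor activation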
[18] = target: T9, Delta-type opioid receptor; experiment: HTS Image-Based Screen for Agonists of the DOR Receptor. [Related pubchem assays (depositor defined):AID1777, AID1786, AID2133]; type: functional
[19] = C. albicans growth with fluconazole, confirmation, fluorescence, retest (AID 2467); type: functional, cell-based
[20] = inhibitors of intracellular T. cruzi replication, confirmation, NIH3T3 host cells, beta-gal luminescence (AID 2044); type: functional, cell-based;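 also: intracellular parasites grown in NIH/3T3 mouse fibroblasts as host cells; luminescent beta-galactosidase reporter signal from transgenic T. cruzi replicating inside host cells; inhibitors lower the luminescence signal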
[21] = cytotoxicity toward NIH3T3 fibroblasts, dose response, counter-screen, cell-based, ATP luminescence, mouse fibroblasts (AID 2010); type: functional;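 also: cells exposed to compound for about 90 hours before reading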
[22] = AlphaScreen signal interference compounds, dose response, artefact control for ARNT-TACC3 interaction inhibitor project, biochemical, luminescence, cherry-pick (AID 651705); type: functional;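 also: AlphaScreen bead proximity signal that flags compounds interfering with the detection technology; potency reflects signal decrease which marks the compound as an assay artifact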

Compound: NC1(C(Cl)(Cl)Cl)Oc2cc(Cl)c(Cl)cc2O1
- IC50 [1]: > 100 µM (inactive)

Compound: COc1ccc(/C=C/c2nnc(NC(=O)CSc3ccc(C)cc3)s2)cc1
- IC50 (SUMO-activating enzyme): > 100 µM (inactive)
- CC50 [2]: > 40 µM (active)

Compound: NC1=C(c2nc(-c3ccc(Cl)cc3)cs2)C(=O)CN1NC(=O)c1ccc(O)cc1
- EC50 [3]: > 120 µM (not active)
- EC50 [4]: 9.72 µM (active)
- EC50 (H4): 94.6 µM (active)
- IC50 [5]: 7.51 µM (active)
- IC50 [6]: > 50 µM (inactive)

Compound: NS(=O)(=O)c1ccc(NC(=S)NC2CCN(Cc3ccccc3)CC2)cc1
- IC50 [7]: > 100 µM (inactive)

Compound: Cc1cccc2nc(CSc3nc4ccccc4[nH]3)cn12
- IC50 [1]: > 100 µM (inactive)

Compound: COc1cc(NC(=O)c2cccs2)ccc1NC(=O)c1cc2ccccc2o1
- IC50 [5]: 11.2 µM (active)
- IC50 [6]: > 50 µM (inactive)

Compound: O=C(CC1SC(N/N=C/C=C/c2ccccc2)=NC1=O)Nc1ccc(Cl)c(Cl)c1 (stereo not drawn)
- IC50 (SUMO-activating enzyme): 34.6 µM (active)
- IC50 [8]: > 47.1 µM (inactive)
- EC50 [9]: > 53 µM (inactive)

Compound: CC1CN(Cc2c(O)ccc3c2oc(=O)c2ccccc23)CC(C)O1 (stereo not drawn)
- IC50 [10]: 3.06 µM (not active)
- AC50 [11]: 0.95 µM (active)
- IC50 [12]: 2.68 µM (active)

Compound: NC(=O)c1nsc(C(=O)N(c2ccccc2F)C(C(=O)NCc2ccccc2)c2ccc(O)cc2)c1N (stereo not drawn)
- AC50 (Trypsin): 12 µM (active)
- AC50 (CAAX prenyl protease 2): 13.8 µM (active)
- IC50 (H9c2): > 79 µM (inactive)

Compound: COC(=O)c1ccc(CSc2nc(O)c3c(C)c(C(=O)O)sc3n2)cc1
- AC50 [11]: 10.6 µM (active)

Compound: C/C(=N\NC(=O)C1COc2ccccc2O1)c1ccccn1 (stereo not drawn)
- IC50 [13]: 6.93 µM (active)
- EC50 (Beta-galactosidase): > 31.5 µM (inactive)
- IC50 [14]: > 32 µM
- IC50 (Nonstructural protein 1): 5.62 µM (active)
- AC50 [15]: 4.49 µM (active)

Compound: O=S(=O)(Nc1cccc2cccnc12)c1ccc(S(=O)(=O)N2CCCC2)cc1
- EC50 [16]: 17.2 µM (active)
- IC50 [17]: > 32 µM (inactive)
- EC50 (Mu-type opioid receptor): > 32 µM (inactive)
- EC50 [18]: > 32 µM (inactive)
- EC50 [19]: 4.29 µM (active)
- EC50 [20]: 2.33 µM (active)
- IC50 [13]: 8.52 µM (active)
- EC50 [21]: 5.05 µM (active)
- EC50 (Beta-galactosidase): > 31.5 µM (inactive)
- IC50 [14]: > 32 µM
- AC50 [22]: 110 µM (active)
